# Experimental data as given in patent US10449245B2 (priority 2014, dated 2019).
# “And” between values parts separate entries of the source, which are not always exact repeats. Identical values can stand only once.
# Assays:
# [1] = test system: Histone H3 acetylation in lymphocytes; assay: Lymphocyte histone H3 acetylation by flow cytometry, REDUC clinical trial Part A; type: in vivo, human; design: key to Histone Acetylation, Mean: MFI, background (isotype control) MFI subtracted; settings: for Histone Acetylation (anti-acetyl histone H3 MFI in lymphocytes): individual subjects 1101, 1102, 1103, 1105, 1106, 1107 = c1-c6; for Histone Acetylation (anti-acetyl histone H3 MFI in lymphocytes) / Histone Acetylation, Mean: romidepsin 5 mg/m^2 i.v. days 0, 7, 14; for Histone Acetylation, Mean: mean of subjects
# Experimental: (§1) Part A of the clinical study contained three phases. First, a pre-treatment phase of 2-4 weeks (visit 1-visit 2a) to confirm the stability of the latent HIV-1 reservoir and determine baseline HIV-1 T lymphocyte specific immunity. Second, a viral reactivation phase of 3 weeks (visit 2 to visit 7) consisting of one cycle of romidepsin infusions at a dosing of 5 mg/m^2 administered intravenously over a 4 hour period. De-escalation down to 2.5 mg/m^2 was planned in case of dose-limiting toxicity was observed. Romidepsin was infused on days 0, 7, and 14. Third, a post-activation phase of ˜9 weeks (visit 8 to visit 11) to assess the effect of romidepsin on the size of latent HIV-1I reservoir.
# Histone H3 acetylation was measured in lymphocytes using flow cytometry with intracellular cytokine staining on fresh isolated PBMCs. Freshly isolated PBMC's were fixated, permeabilised and stained with acetylation-specific antibodies, providing the possibility to evaluate epigenetic modifications on Histones (Rigby L, Muscat A, Ashley D, Algar E. Epigenetics 2012; 7(8):875-882). Briefly, PBMCs (1×10^6) were resuspended in 3 ml ice-cold PBS/1% FBS and centrifuged, then vortexed to dissolve pellet and fixative added, 100 μl 2% PFA (ice-cold), vortexed briefly and incubated on ice for 15 min. Cells were then washed in 4 ml PBS, resuspend in 200 μl PBS and stored at 4° C. until staining. Samples were washed with 3 ml FACS buffer and vortexed to dissolve cell pellet prior to adding 100 μl 0.2% Triton X-100, vortex briefly and incubate for 10 min. at room temperature (RT). Samples were then washed with FACS buffer, 600 μl Block (PBS/10% FBS) was added, sample vortexed to resuspend cell pellet and incubate for 20 min at RT. After washing with 3 ml FACS buffer 5 μl primary antibody Anti-acetyl histone H3 (rabbit) at 200 μg/ml (Merck Millipore) or isotype control at 200 μg/ml (normal rabbit serum, LifeTechnologie) was added, and samples vortexed to resuspend cell pellet, and incubated for 1 hour at RT. Following this samples […]), vortexed to resuspend cell pellet and incubated for 1 hour in the dark (RT). Finall samples were washed with FACS buffer and resuspended in 80 μl PBS and analyzed by FACS (50 000 events, anti-acetyl histone H3 Median Fluorescence Intensity, MFI, calculated by subtracting background MFI from isotype control).
# HIV-1 [2] = assay: Plasma HIV RNA quantitative viral load (Cobas TaqMan HIV-1 Test v2.0), REDUC Part A; type: in vivo, human; settings: for HIV VL: individual subjects 1101, 1102, 1103, 1105, 1106, 1107 = c1-c6, romidepsin 5 mg/m^2 i.v. days 0, 7, 14
# Experimental: as §1, with “First, a pre-treatment phase of 2-4 weeks (visit 1-visit 2a) to confirm the stability of the latent HIV-1 reservoir and determine baseline HIV-1 T lymphocyte specific immunity.” left out
# Plasma HIV RNA, quantitative viral load, was measured by Cobas® TaqMan® HIV-1 Test, v2.0 (Roche) according the manufacturer's instruction (routine clinical assay). The lower limit of quantification for this assay is 20 copies HIV-1 RNA/mL, but it provides a qualitative assessment below this.
# HIV-1 [3] = assay: Plasma HIV-1 RNA by transcription mediated amplification (TMA) NAT screen, REDUC Part A; type: in vivo, human; settings: for TMA assay, Percent positive: share of subjects positive; for TMA assay, Percent positive / TMA assay, presence of HIV RNA: romidepsin 5 mg/m^2 i.v. days 0, 7, 14; for TMA assay, presence of HIV RNA: individual subjects 1101, 1102, 1103, 1105, 1106, 1107 = c1-c6
# [4] = human, in vivo
# Experimental: as §1
# The primary objective of this part of the study was to evaluate the safety and tolerability of romidepsin at a reduced dosing of 5 mg/m^2 in HIV-infected patients.
# The primary endpoint of this part was safety and tolerability; evaluation as measured by adverse events (AE), adverse reactions (AR), serious adverse events (SAE), serious adverse reactions (SAR), serious unexpected adverse reactions (SUSAR).
# [5] = test system: latently infected cell lines and primary T cells; settings: cited from earlier work
# [6] = visit 2A (day 0, pre-treatment)
# [7] = visit 1 (day −21, pre-treatment)
smiles,measurement,setting,value
"C/C=C1\NC(=O)[C@H]2CSSCC/C=C/[C@H](CC(=O)N[C@H](C(C)C)C(=O)N2)OC(=O)[C@H](C(C)C)NC1=O [romidepsin, (1S,4S,7Z,10S,16E,21R)-7-ethylidene-4,21-bis(1-methylethyl)-2-oxa-12,13-dithia-5,8,20,23-tetraazabicyclo[8.7.6]tricos-16-ene-3,6,9,19,22-pentone]","Lymphocyte histone H3 acetylation, maximum fold range relative to baseline","[1]; following each romidepsin administration, 5 mg/m^2",3.7-7.7 fold
same,Histone Acetylation (anti-acetyl histone H3 MFI in lymphocytes),[1]; [6],1181 and 1258 and 562 and 1020 and 309 and 372
same,"Histone Acetylation, Mean",[1]; [6],783.6667
same,Histone Acetylation (anti-acetyl histone H3 MFI in lymphocytes),[1]; visit 2B (day 0 + 4 h),3493 and 1534 and 3481 and 2473 and 2360 and 2463
same,"Histone Acetylation, Mean",[1]; visit 2B (day 0 + 4 h),2634
same,Histone Acetylation (anti-acetyl histone H3 MFI in lymphocytes),[1]; visit 3 (day 1),3465 and 2197 and 2451 and 2216 and 2475 and 1757
same,"Histone Acetylation, Mean",[1]; visit 3 (day 1),2426.833
same,Histone Acetylation (anti-acetyl histone H3 MFI in lymphocytes),[1]; visit 4 (day 3),3102 and 2964 and 3201 and 4130 and 3302 and 2767
same,"Histone Acetylation, Mean",[1]; visit 4 (day 3),3244.333
same,Histone Acetylation (anti-acetyl histone H3 MFI in lymphocytes),[1]; visit 5A (day 7),2065 and 2740 and 1284 and 2042 and 2863 and 596
same,"Histone Acetylation, Mean",[1]; visit 5A (day 7),1931.667
same,Histone Acetylation (anti-acetyl histone H3 MFI in lymphocytes),[1]; visit 5B (day 7 + 4 h),5363 and 4597 and 4059 and 3198 and 4239 and 2214
same,"Histone Acetylation, Mean",[1]; visit 5B (day 7 + 4 h),3945
same,Histone Acetylation (anti-acetyl histone H3 MFI in lymphocytes),[1]; visit 6 (day 10),2788 and 4124 and 3402 and 3859 and 3748 and 3280
same,"Histone Acetylation, Mean",[1]; visit 6 (day 10),3533.5
same,Histone Acetylation (anti-acetyl histone H3 MFI in lymphocytes),[1]; visit 7A (day 14),2486 and 3236 and 1789 and 1794 and 1438 and 1211
same,"Histone Acetylation, Mean",[1]; visit 7A (day 14),1992.333
same,Histone Acetylation (anti-acetyl histone H3 MFI in lymphocytes),[1]; visit 7B (day 14 + 4 h),7228 and 3580 and 3317 and 4101 and 5467 and 3444
same,"Histone Acetylation, Mean",[1]; visit 7B (day 14 + 4 h),4522.833
same,Histone Acetylation (anti-acetyl histone H3 MFI in lymphocytes),[1]; visit 8 (day 17),3875 and 4502 and 3147 and 3675 and 3572
same,"Histone Acetylation, Mean",[1]; visit 8 (day 17),3754.2
same,Histone Acetylation (anti-acetyl histone H3 MFI in lymphocytes),[1]; visit 9 (day 21),741 and 2416 and 1607 and 1923 and 1179 and 2467
same,"Histone Acetylation, Mean",[1]; visit 9 (day 21),1722.167
same,Histone Acetylation (anti-acetyl histone H3 MFI in lymphocytes),[1]; visit 10 (day 56),1733 and 3579 and 2622 and 3035 and 1592 and 1865
same,"Histone Acetylation, Mean",[1]; visit 10 (day 56),2404.333
same,Histone Acetylation (anti-acetyl histone H3 MFI in lymphocytes),[1]; visit 11 (day 84),1243 and 1823 and 1292 and 1287 and 1059 and 970
same,"Histone Acetylation, Mean",[1]; visit 11 (day 84),1279
same,"extracellular HIV RNA, change",HIV-1 [2]; as a result of romidepsin infusion,significantly increased
same,plasma HIV-1 RNA,HIV-1 [2]; at baseline,< 20 copies/mL
same,patients with plasma HIV-1 RNA increased to readily quantifiable levels,HIV-1 [2]; at multiple post-infusion time-points,5 of 6
same,plasma HIV-1 RNA,"HIV-1 [2]; range following the second infusion, standard clinical assay",46-103 copies/mL
same,HIV VL,HIV-1 [2]; [7],LOQ (LOQ = “detectable” not quantifiable HIV RNA<20 c/mL) (3×) and 40 HIV RNA copies/mL plasma and LOD (2×)
same,HIV VL,HIV-1 [2]; [6],LOD
same,HIV VL,HIV-1 [2]; visit 2B (day 0 + 4 h),LOQ (LOQ = “detectable” not quantifiable HIV RNA<20 c/mL) and LOD (5×)
same,HIV VL,HIV-1 [2]; visit 3 (day 1),26 HIV RNA copies/mL plasma and LOD (2×) and LOQ (LOQ = “detectable” not quantifiable HIV RNA<20 c/mL) (2×) and 27 HIV RNA copies/mL plasma
same,HIV VL,HIV-1 [2]; visit 4 (day 3),LOQ (LOQ = “detectable” not quantifiable HIV RNA<20 c/mL) and 32 HIV RNA copies/mL plasma and LOD (4×)
same,HIV VL,HIV-1 [2]; visit 5A (day 7),LOQ (LOQ = “detectable” not quantifiable HIV RNA<20 c/mL) and LOD (5×)
same,HIV VL,HIV-1 [2]; visit 5B (day 7 + 4 h),21 HIV RNA copies/mL plasma and LOD (3×) and 54 HIV RNA copies/mL plasma and LOQ (LOQ = “detectable” not quantifiable HIV RNA<20 c/mL)
same,HIV VL,HIV-1 [2]; visit 6 (day 10),59 HIV RNA copies/mL plasma and 74 HIV RNA copies/mL plasma and LOQ (LOQ = “detectable” not quantifiable HIV RNA<20 c/mL) and LOD and 46 HIV RNA copies/mL plasma and 103 HIV RNA copies/mL plasma
same,HIV VL,HIV-1 [2]; visit 7A (day 14),LOD (5×) and LOQ (LOQ = “detectable” not quantifiable HIV RNA<20 c/mL)
same,HIV VL,HIV-1 [2]; visit 7B (day 14 + 4 h),LOQ (LOQ = “detectable” not quantifiable HIV RNA<20 c/mL) and LOD (5×)
same,HIV VL,HIV-1 [2]; visit 9 (day 21),LOQ (LOQ = “detectable” not quantifiable HIV RNA<20 c/mL) (3×) and LOD (3×)
same,HIV VL,HIV-1 [2]; visit 10 (day 56),LOD (3×) and 42 HIV RNA copies/mL plasma and LOQ (LOQ = “detectable” not quantifiable HIV RNA<20 c/mL) (2×)
same,HIV VL,HIV-1 [2]; visit 11 (day 84),LOQ (LOQ = “detectable” not quantifiable HIV RNA<20 c/mL) and LOD (4×) and 68 HIV RNA copies/mL plasma
same,HIV VL,HIV-1 [2]; visit V8 (day 17),22 HIV RNA copies/mL plasma and LOD (2×) and LOQ (LOQ = “detectable” not quantifiable HIV RNA<20 c/mL) and 119 HIV RNA copies/mL plasma
same,"TMA assay, Percent positive","HIV-1 [3]; Visit 1 (day −21, pre-treatment)",50%
same,"TMA assay, Percent positive","HIV-1 [3]; Visit 2A (day 0, pre-treatment)",50%
same,"TMA assay, Percent positive",HIV-1 [3]; Visit 2B (day 0 + 4 h),67%
same,"TMA assay, Percent positive",HIV-1 [3]; Visit 3 (day 1),83%
same,"TMA assay, Percent positive",HIV-1 [3]; Visit 4 (day 3),83%
same,"TMA assay, Percent positive",HIV-1 [3]; Visit 5A (day 7),50%
same,"TMA assay, Percent positive",HIV-1 [3]; Visit 5B (day 7 + 4 h),100%
same,"TMA assay, Percent positive",HIV-1 [3]; Visit 6 (day 10),100%
same,"TMA assay, Percent positive",HIV-1 [3]; Visit 7A (day 14),50%
same,"TMA assay, Percent positive",HIV-1 [3]; Visit 7B (day 14 + 4 h),67%
same,"TMA assay, Percent positive",HIV-1 [3]; Visit 8 (day 17),100%
same,"TMA assay, Percent positive",HIV-1 [3]; Visit 9 (day 21),33%
same,Plasma HIV-1 RNA detection by transcription-mediated amplification assay,HIV-1 [3]; post-infusion time-points compared with baseline,detected more frequently
same,"TMA assay, presence of HIV RNA",HIV-1 [3]; [7],1 (3×) and 0 (3×)
same,"TMA assay, presence of HIV RNA",HIV-1 [3]; [6],1 (3×) and 0 (3×)
same,"TMA assay, presence of HIV RNA",HIV-1 [3]; visit 2B (day 0 + 4 h),1 (4×) and 0 (2×)
same,"TMA assay, presence of HIV RNA",HIV-1 [3]; visit 3 (day 1),1 (5×) and 0
same,"TMA assay, presence of HIV RNA",HIV-1 [3]; visit 4 (day 3),1 (5×) and 0
same,"TMA assay, presence of HIV RNA",HIV-1 [3]; visit 5A (day 7),1 (3×) and 0 (3×)
same,"TMA assay, presence of HIV RNA",HIV-1 [3]; visit 5B (day 7 + 4 h),1
same,"TMA assay, presence of HIV RNA",HIV-1 [3]; visit 6 (day 10),1
same,"TMA assay, presence of HIV RNA",HIV-1 [3]; visit 7A (day 14),1 (3×) and 0 (3×)
same,"TMA assay, presence of HIV RNA",HIV-1 [3]; visit 7B (day 14 + 4 h),1 (4×) and 0 (2×)
same,"TMA assay, presence of HIV RNA",HIV-1 [3]; visit 8 (day 17),1
same,"TMA assay, presence of HIV RNA",HIV-1 [3]; visit 9 (day 21),0 (4×) and 1 (2×)
same,grade II AEs,[4],Two
same,activation of HIV-1 expression,[5],potently activates HIV-1 expression
